Measured values as given in patent publication US11633394B2, “Substituted alkynylene compounds as anticancer agents” (Aurigene Oncology Limited, priority 2018, dated 2023).

How the values were obtained:
Format in all cases: cell-based
NCI-H2122 cells = assay: Anti proliferative activity in NCI-H2122 cells by XTT assay; settings: H2122 cell line; for IC50: 8 days (192 hour) incubation; for viability at 30 µM: 8 days
Method: Example 79: Determination of Anti Proliferative Activity in NCI-H2122 Cells by XTT Assay
NCI-H2122 cells (ATCC CRL-5985) were plated at 1000 cells/well in 96 well flat clear bottom plates (Corning, Cat. No 3596) using complete RPMI-1640 media. After 24 hours, compounds of present invention were added to cells from 10 mM stocks made in DMSO (Sigma Cat no. D2650). Each concentration of compound was tested in triplicate with DMSO concentration not exceeding a final percentage of 0.3 in the cells. Complete RPMI-1640 media changed at Day 3 (72 hour) and Day 6 (144 hour) along with compounds of current invention. After 8 days (192 hour) of incubation assay terminated using 50 μl of XTT reagent (Invitrogen, Cat. no X6493). XTT reagent was made by dissolving 1 mg/mi XTT in serum free media with addition of 25 μM Phenazine methosulfate (sigma Cat. no P9625). Absorbance readings were taken in spectrophotometer at 465 nm. The data was analysed using graph pad prism software. Positive control (100% survival)=Cells in complete media with 0.3% DMSO; Negative control/blank (0% survival)=Media alone containing 0.3% DMSO.
(§1) The compounds of the present invention were screened in the above mentioned assay and the results are tabulated below.

OCI-Ly10 cells = assay: Anti proliferative activity in OCI-Ly10 cells (CTG luminescence); settings: for inhibition at 1 µM / inhibition at 10 µM: Homo sapiens, OCI-Ly10, 72 h
Method: Example 80: Determination of Anti Proliferative Activity in OCI-Ly10 Cells
OCI-Ly10 cells (UHN Canada) were plated at 7500 cells/well in 96 well flat bottom plates (Corning, Cat. No CLS3904) using complete Iscove's Modified Dulbecco's Medium (IMDM. After 6 hours, compounds from the present invention were added to the cells from 10 mM stocks made in DMSO (Sigma, Cat. No D2650). Each concentration of compound was tested in triplicates with DMSO concentration not exceeding a final percentage of 0.1 in the cells. After 72 hours of incubation in CO2 incubator, CTG (Promega, Cat. No G7572) was added to the wells and Luminescence readings were taken in the plate reader. Percent inhibition in proliferation was calculated using Microsoft Excel software. Positive control (100% survival)=Cells in complete media with 0.1% DMSO; Negative control/blank (0% survival)=Media alone containing 0.1% DMSO.

NCI-H1792 cells = assay: Anti proliferative activity in NCI-H1792 cells by XTT assay; settings: H1792 cell line; for IC50: 72 hours incubation
Method: Example 78: Determination of Anti Proliferative Activity in NCI-H1792 Cells by XTT Assay
NCI-H1792 cells (ATCC CRL-5895) were plated at 2000 cells/well in 96 well flat clear bottom plates (Corning, Cat. No 3596) using complete RPMI media. After 24 hours, compounds of present invention were added to cells from 20 mM stocks made in DMSO (Sigma Cat no. D2650). Each concentration of compound was tested in triplicate with DMSO concentration not exceeding a final percentage of 0.3 in the cells. After 72 hours of incubation in CO2 incubator, XTT (Invitrogen, Cat. no X6493) was added to the wells. XTT was dissolved in serum free media at 1 mg/ml and absorbance readings were taken in spectrophotometer at 465 nm. The data was analysed using graph pad prism software. Positive control (100% survival)=Cells in complete media with 0.3% DMSO; Negative control/blank (0% survival)=Media alone containing 0.3% DMSO.
as §1

[1] = Homo sapiens, NCI-H1792, 72 h, at 30 μM, 72 hours

| Structure (SMILES) | IC50 (NCI-H2122 cells; Homo sapiens, NCI-H2122, 192 h) | inhibition at 1 µM (OCI-Ly10 cells) | inhibition at 10 µM (OCI-Ly10 cells; at 10 μM) | viability at 30 µM (NCI-H2122 cells; Homo sapiens, NCI-H2122, 192 h) | other results |
| --- | --- | --- | --- | --- | --- |
| C=CC(=O)N1CCN(C(=O)NC2(C#Cc3ccc(Cl)c(Cl)c3)CCCC2)CC1 [Example 24] | < 10 µM | 35% | 68% | – | – |
| C=CC(=O)N1CCN(C(=O)NC(C)C#Cc2ccc(C#N)c(C(F)(F)F)c2)CC1 (centres unmarked) [Example 63] | < 10 µM | 49% | 79% | 18% | – |
| C=CC(=O)N1CCN(C(=O)NC(C)C#Cc2ccc(F)c(Cl)c2)CC1 (centres unmarked) [Example 5] | – | 43% | 77% | – | IC50 (NCI-H1792 cells; Homo sapiens, NCI-H1792, 72 h): < 10 µM; viability at 30 µM (NCI-H1792 cells; [1]): 57% |
| CC(C)/C=C(\C#N)C(=O)N1CCN(C(=O)NC2(C#Cc3ccc(Cl)c(Cl)c3)CC2)CC1 [Example 45, (E)-4-(2-cyano-4-methylpent-2-enoyl)-N-(1-((3,4-dichlorophenyl)ethynyl)cyclopropyl) piperazine-1-carboxamide] | – | 0% | 44% | – | – |
| CC(C#Cc1ccc(Cl)c(Cl)c1)NC(=O)N1CCN(C(=O)C2(C#N)CC2)CC1 (racemic) [Example 44, 4-(1-cyanocyclopropane-1-carbonyl)-N-(4-(3,4-dichlorophenyl)but-3-yn-2-yl) piperazine-1-carboxamide] | > 25 µM | – | – | 99% | – |
| C=CC(=O)N1CCN(C(=NC#N)NC(C)C#Cc2ccc(Cl)c(Cl)c2)CC1 (racemic) [Example 54, (E)-4-acryloyl-N′-cyano-N-(4-(3,4-dichlorophenyl)but-3-yn-2-yl) piperazine-carboximidamide] | – | 37% | 56% | – | IC50 (NCI-H1792 cells; Homo sapiens, NCI-H1792, 72 h): < 10 µM; viability at 30 µM (NCI-H1792 cells; [1]): 22% |
| C=CC(=O)N1CCN(C(=O)NC(C)C#Cc2ccc(Cl)s2)CC1 (centres unmarked) [Example 17] | 10 to 25 µM | – | – | 19% | – |
| C=CC(=O)N1CC(N2CCN(C(=O)NC3(C#Cc4ccc(Cl)c(C5(C)CC5)c4)CC3)CC2)C1 [Example 27] | < 10 µM | – | – | – | – |
| C=CC(=O)NC1(C(=O)NC(C)C#Cc2ccc(Cl)c(Cl)c2)CCCC1 (centres unmarked) [Example 74] | > 25 µM | – | – | 60% | – |
| C=CC(=O)N1CCC(C(=O)NC(C)C#Cc2ccc(Cl)c(Cl)c2)C1 (centres unmarked) [Example 72] | – | – | – | – | % inhibition (at 1 μM) (OCI-Ly10 cells; 72 hours): 4%; % inhibition (at 10 μM) (OCI-Ly10 cells; at 10 μM, 72 hours): 55%; IC50 (NCI-H1792 cells): 10 to 25 µM; % Viability (at 30 μM) (NCI-H1792 cells; at 30 μM, 72 hours): 27% |
| C=CC(=O)N1CCN(C(=O)NC2(C#Cc3ccc(Cl)c(C4(C)CC4)c3)CC2)CC1 [Example 26] | 10 to 25 µM | – | – | – | – |
| C=CC(=O)N1CCN(C(=O)NC(C)C#Cc2ccc(Oc3ccccc3)c(Cl)c2)CC1 (centres unmarked) [Example 25] | 10 to 25 µM | 3% | 72% | 16% | – |
| C=CC(=O)N1CCN(C(=O)NC(C)(C)C#Cc2ccc(Cl)c(Cl)c2)CC1 [Example 3] | – | 12% | 92% | – | IC50 (NCI-H1792 cells; Homo sapiens, NCI-H1792, 72 h): < 10 µM; viability at 30 µM (NCI-H1792 cells; [1]): 3% |
| CC(C#Cc1ccc(Cl)c(Cl)c1)NC(=O)N1CCC(N2C(=O)C=CC2=O)CC1 (centres unmarked) [Example 59] | < 10 µM | 25% | 100% | 0% | – |
| C=CC(=O)N1CCN(C(=O)NC2(C#Cc3ccc(Cl)c(Cl)c3)CC2)CC1 [Example 23] | < 10 µM | 48% | 67% | 21% | – |
| C=CC(=O)N1CCC(C(=O)NC(C)C#Cc2ccc(Cl)c(Cl)c2)C1 (centres unmarked) [Example 71] | – | – | 62% | – | % inhibition (at 1 μM) (OCI-Ly10 cells; 72 hours): 9%; IC50 (NCI-H1792 cells; Homo sapiens, NCI-H1792, 72 h): 10 to 25 µM; viability at 30 µM (NCI-H1792 cells; [1]): 26% |

| Structure (SMILES) | IC50 (NCI-H2122 cells; Homo sapiens, NCI-H2122, 192 h) | inhibition at 1 µM (OCI-Ly10 cells) | inhibition at 10 µM (OCI-Ly10 cells; at 10 μM) | viability at 30 µM (NCI-H2122 cells; Homo sapiens, NCI-H2122, 192 h) | other results |
| --- | --- | --- | --- | --- | --- |
| C=CC(=O)N1CCN(C(=O)NC(C)C#Cc2ccc(Cl)cc2Cl)CC1 (centres unmarked) [Example 30] | 10 to 25 µM | – | – | 19% | – |
| C=C(C)C(=O)N1CCN(C(=O)NC(C)C#Cc2ccc(Cl)c(Cl)c2)CC1 (racemic) [Example 43, N-(4-(3,4-dichlorophenyl)but-3-yn-2-yl)-4-methacryloylpiperazine-1-carboxamide] | > 25 µM | – | – | 78% | – |
| CC(C#Cc1ccc(Cl)c(Cl)c1)NC(=O)N1CCN(CC2CO2)CC1 (centres unmarked) [Example 21] | 10 to 25 µM | – | – | 31% | – |
| CC(C#Cc1ccc(Cl)c(Cl)c1)NC(=O)N1CCN(C(=O)C2CC(Br)=NO2)CC1 (racemic) [Example 77, 4-(3-bromo-4,5-dihydroisoxazole-5-carbonyl)-N-(4-(3,4-dichlorophenyl)but-3-yn-2-yl)piperazine-1-carboxamide(±)] | 10 to 25 µM | – | – | – | – |
| C#Cc1cc(C#CC2(NC(=O)N3CCN(C(=O)C=C)CC3)CC2)ccc1Cl [Example 36] | – | 39% | 65% | – | – |
| C=CC(=O)N[C@H]1CC[C@@H](NC(=O)NC(C)C#Cc2ccc(Cl)c(Cl)c2)CC1 (some centres unmarked) [Example 33] | > 25 µM | – | – | – | viability at 30 µM (NCI-H1792 cells; [1]): 54% |
| C=CC(=O)N(C)[C@@H]1CCCC[C@H]1N(C)C(=O)NC(C)C#Cc1ccc(Cl)c(Cl)c1 (single isomer, unassigned) [Example 48a] | – | – | – | – | IC50 (NCI-H2122 cells): > 25 µM |
| C=CC(=O)N1CCN(C(=O)NC(C)C#Cc2ccc(Cl)c(N(CC)CC)c2)CC1 (centres unmarked) [Example 32] | 10 to 25 µM | – | – | 15% | – |
| C=CCN(C(=O)C=C)C1CCN(C(=O)NC(C)C#Cc2ccc(Cl)c(Cl)c2)CC1 (centres unmarked) [Example 58] | – | – | – | 72% | IC50 (NCI-H1792 cells; Homo sapiens, NCI-H1792, 72 h): > 25 µM |
| C=CC(=O)N1CCN(C(=O)NC2(C#Cc3cccc4ccccc34)CC2)CC1 [Example 35] | – | 24% | 67% | – | – |
| C=CC(=O)N1CCN(C(=O)NC(C)C#Cc2ccc(F)cc2)CC1 (centres unmarked) [Example 64] | > 25 µM | – | – | 56% | – |
| C=CC(=O)N1CCN(C(=O)NC(C)C#Cc2ccc(OCc3ccccc3)c(Cl)c2)CC1 (centres unmarked) [Example 18] | < 10 µM | – | – | 1% | – |
| CC(C#Cc1ccc(Cl)c(Cl)c1)NC(=O)N1CCN(C(=O)/C(C#N)=C/N(C)C)CC1 (centres unmarked) [Example 60] | > 25 µM | – | – | 90% | – |
| C=CC(=O)N1CC(C(=O)N2CCN(C(=O)NC3(C#Cc4ccc(Cl)c(Cl)c4)CC3)CC2)C1 [Example 68, 4-(1-acryloylazetidine-3-carbonyl)-N-(1-((3,4-dichlorophenyl)ethynyl)cyclopropyl) piperazine-1-carboxamide] | > 25 µM | – | – | – | – |
| C=CC(=O)N1CCN(C(=O)NC(C)C#Cc2ccc(Cl)c(Cl)c2)CC1 (single isomer, unassigned) [Example 1a, 4-acryloyl-N-(4-(3,4-dichlorophenyl)but-3-yn-2-yl) piperazine-1-carboxamide] | – | – | – | 26% | IC50 (NCI-H1792 cells; Homo sapiens, NCI-H1792, 72 h): < 10 µM; viability at 30 µM (NCI-H1792 cells; [1]): 45% |
